Values of other authors in US20100151018A1, “SUSTAINED-RELEASE LEVETIRACETAM COMPOSITION AND PREPARATION PROCESS” (RD- Pharmagal, priority 2007, published 2010).
In brackets after ≈: the same amount, converted by molar mass.

What was measured:
[1] = not given; remark: listed apart in the source

Structure (SMILES): NC(=O)N1c2ccccc2CC(=O)c2ccccc21 [oxcarbazepine]
- solubility in water: 308 µg/mL (≈ 1220 µM)

Structure (SMILES): CC[C@@H](C(N)=O)N1CCCC1=O [levetiracetam, S-enantiomer of a-ethyl-2-oxo-1-pyrrolidine acetamide]
- plasma half-life ([1]; in adults): 7 h
- bioavailability ([1]; oral administration of immediate-release tablets): approximately 100%
- solubility in water: approximately 104.0 g/100 ml
